Results published in PubChem BioAssay (NCI).
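Where inhibition never reached the appropriate level, the endpoint shown equals the highest concentration tested. Otherwise, values were interpolated linearly from a five-concentration, 48-hour dose response in 96-well plates. TGI marks complete inhibition of growth.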

How the values were obtained:
Experiment in all cases: NCI-60 cell line screen, 48 h
786-0 renal = tested on: 786-0 renal
A549 NSCLC = tested on: A549 NSCLC
CCRF-CEM leukemia = tested on: CCRF-CEM leukemia
HS 578T breast = tested on: HS 578T breast
IGROV1 ovarian = tested on: IGROV1 ovarian
K-562 leukemia = tested on: K-562 leukemia
MCF7 breast = tested on: MCF7 breast
MDA-MB-435 = tested on: MDA-MB-435
SK-OV-3 ovarian = tested on: SK-OV-3 ovarian
UACC-257 melanoma = tested on: UACC-257 melanoma
HL-60(TB) leukemia = tested on: HL-60(TB) leukemia
NCI-H522 lung = tested on: NCI-H522 lung

| SMILES | TGI (786-0 renal) [µM] | TGI (A549 NSCLC) [µM] | TGI (CCRF-CEM leukemia) [µM] | TGI (HS 578T breast) [µM] | TGI (IGROV1 ovarian) [µM] | TGI (K-562 leukemia) [µM] | TGI (MCF7 breast) [µM] | TGI (MDA-MB-435) [µM] | TGI (SK-OV-3 ovarian) [µM] | TGI (UACC-257 melanoma) [µM] | TGI (HL-60(TB) leukemia) [µM] | TGI (NCI-H522 lung) [µM] |
| --- | --- | --- | --- | --- | --- | --- | --- | --- | --- | --- | --- | --- |
| CC(=O)O[C@H]1C(=O)[C@@]2(C)[C@H]([C@H](OC(=O)c3ccoc3)[C@]3(O)C[C@H](OC(=O)[C@H](O)[C@@H](NC(=O)c4ccccc4)c4ccccc4)C(C)=C1C3(C)C)[C@]1(OC(C)=O)CO[C@@H]1C[C@@H]2O | > 12.5 | > 12.5 | > 2.88 | 0.612 | > 12.5 | 0.156 | > 12.5 | 0.0236 | > 3.15 | > 12.5 |  |  |
| CC1(C)OC(=O)N(c2ccccc2)C12C=Cc1cc([N+](=O)[O-])ccc1O2 (stereo not drawn) | > 100 | > 100 | 99 | > 100 | > 100 | > 100 |  | 62.8 | 66.4 | 77 | 63.7 | > 100 |
| COC(=O)CC1N=C(NC#N)N(CCc2c[nH]c3ccccc23)C1=O (stereo not drawn) | > 100 | > 100 | > 100 |  | > 100 | > 100 |  |  | > 100 | > 100 | > 100 |  |
| Nc1nc(-c2ccccc2)cc(-c2ccc(OCc3ccccc3)cc2O)n1 | > 100 | > 100 | > 100 | > 100 | > 100 | > 100 | > 100 | > 100 |  | > 100 |  | 90.7 |
| CC1=CCC(O)C=CC(C)C(O)C(C)C=C(C)C(=O)c2c(O)c(C)cc3c2C(=O)C(N)=C(NC(=O)/C=C\C=C/C=CC(C)C(O)CC1=O)C3=O (stereo not drawn) | > 100 | > 100 | > 100 |  | > 100 | > 100 |  |  | > 100 | > 100 | 38.6 | 35.3 |
| CN(C)CC1CCCC(CN(C)C)C1OC(=O)c1ccccc1 (stereo not drawn) | > 100 | > 100 | > 100 |  | > 100 | > 100 |  |  | > 100 | > 100 | > 100 | > 100 |
| CCN(CC)C1CC(O[C@H]2C[C@](O)(C(=O)CO)Cc3c(O)c4c(c(O)c32)C(=O)c2c(OC)cccc2C4=O)OC(C)C1O (stereo partly drawn) | 0.541 | 0.394 | 1.41 |  | 4.66 | 0.947 |  |  | 9.62 | 0.305 | 0.533 | 0.121 |
| COc1cc(OC)c2c(C)cc(=O)oc2c1 | > 100 | > 100 | > 100 | > 100 | > 100 | > 100 | > 100 | > 100 | > 100 | > 100 |  |  |
| O=C(NC(Cc1ccccc1)(Cc1ccc(O)cn1)C(=O)O)c1ccccc1 (stereo not drawn) | > 100 | > 100 | > 100 | > 100 | > 100 | > 100 |  | > 100 | > 100 | > 100 | 68.2 | > 100 |
| O=C1c2ccccc2C(=O)N1CCCCNOCCCN1C(=O)c2ccccc2C1=O | > 100 | > 100 | > 100 | > 100 | > 100 | > 100 | > 100 | > 100 | > 100 | > 100 |  | > 100 |
| O=c1cc(-c2ccc(Oc3ccccc3)cc2)[nH]c2cc3c(cc12)OCO3 | > 100 | > 100 | > 100 |  | > 100 | > 100 |  |  |  | > 100 | > 100 |  |
| Nc1nc(-[n+]2ccc(-c3ccncc3)cc2)nc(Cl)c1Cl | 57.9 | > 100 | 31.8 |  | 33.3 | 91.7 | 21.8 | > 100 | > 100 | 40.8 | 38.9 |  |
| Cc1ccc2c3c1O[C@H]1c4[nH]c5ccccc5c4C[C@@]4(O)[C@@H](C2)N(CC2CC2)CC[C@]314 | 27.1 | 29.7 | 24.6 |  | 32 | 61.1 | 31.5 | 26.8 | 31.5 | 32.8 | 22.4 | 29.5 |
| CCOC(=O)c1ccc(NCc2ccc3oc(=O)c(-c4ccccc4)nc3c2)cc1 | > 100 | > 100 | 22.6 |  | > 100 | 85.8 | 38 | 32.7 | > 100 | 42 | 13.2 | 32.1 |
| C[C@@H](c1ccccc1)n1c(N)c(C#N)c2ccc([N+](=O)[O-])cc2c1=O | 31.3 | > 100 | 33 | 69.4 |  | 26.1 |  | 61 |  | 40.3 | 27.7 |  |
| Nc1nc([O-])c2c(n1)[n+](C1OC(CO)C(O)C1O)cn2CCO (stereo not drawn) | > 100 | > 100 | > 100 |  | > 100 | > 100 |  |  | > 100 | > 100 | > 100 | > 100 |
| CSc1cc(Cl)c(C)cc1S(=O)(=O)NC(=O)NNc1cccc(C(F)(F)F)n1 | > 100 | > 100 | > 100 | > 100 | > 100 | > 100 | > 100 | > 100 | > 100 |  |  | > 100 |
| O=[N+]([O-])c1ccc(S(=O)(=O)n2c3ccc(Br)cc3c3nc4ccccc4nc32)cc1 | > 100 | > 100 | > 100 | > 100 | > 100 | > 100 |  | > 100 |  | > 100 |  | > 100 |
| N#C[C@@H](c1ccccn1)c1ncccc1[N+](=O)[O-] | > 100 | > 100 | > 100 | > 100 | > 100 | > 100 | > 100 | > 100 | > 100 |  |  | > 100 |
| CCOC(=O)CC(C)C1(C(=O)OCC)CCCCC1=O (stereo not drawn) | > 100 | > 100 | > 100 |  | > 100 | > 100 |  |  | > 100 | > 100 | > 100 | > 100 |
| COC1=C(OC)C(=O)C(Cc2c(C)nc3sccn23)=C(C)C1=O | 43.2 | 40.3 | 23.8 | 58.5 | 40.9 | 39.8 | > 100 | 28.6 | 26.8 | 20.7 |  | 54.9 |
